Measurements published in US5853731A, “Thromboxane A2 Receptor antagonism and antioxidant action of cinnamophilin and its derivatives, their pharmaceutical compositions and uses” (National Science Council, priority 1997, dated 1998).

Columns and labels:
rabbit platelets = assay: Aggregation of washed rabbit platelet suspension induced by AA, PAF, collagen, U-46619, ADP and thrombin; type: cell-based
Protocol: A. Preparation of aggregation inducing agent
1. Collagen (bovine tendon) in 15 mM aqueous acetic acid was homogenized at 4° C. to form a well dispersed suspension in 1 mg/ml and stocked at -70° C. Before using, it was thawed and well homogenized.
2. PAF was dissolved in CCl4 and stocked at […] Before using, it was diluted with deionized water.
3. […] and sodium arachidonate (AA) were dissolved in deionized water for use.
B. Preparation of platelets
A suspension of platelets was prepared according to the reported method. EDTA (100 mM) and the blood obtained from rabbit's ear vein were mixed in the ratio of 1:4, and immediately centrifuged (120× g) at room temperature for 10 minutes. Platelet-rich plasma was subjected to further centrifuge (500× g) for another 10 minutes. After the plasma was removed, the platelets in the lower layer were suspended in the Tyrode solution containing EDTA (2 mM) and bovine serum albumin (3.5 mg/ml), and subjected to centrifuge (500× g) again for 10 minutes. The platelets obtained were suspended in a Tyrode solution containing no EDTA, and was adjusted to about 4.5×10^8 cells/ml by a cell counter. 1 mM of calcium ion (Ca^2+) was added to the suspension. 30 minutes after the addition, the experiment was conducted. The composition of Tyrode […]: NaCl (136.9), KCl (2.7), NaH2 PO4 (0.4), NaHCO3 (11.9), glucose (11.1).
C. Platelet aggregation and ATP release reaction test
The method reported by Born (J. Physiol. 168, 178, 1963) was used to determine the platelet aggregation by a Lumi-aggregometer (Model 1020, Payton, Canada). Platelet suspension (0.4 ml) was added into a small glass tube coated with silicone, and stirred at 900 rpm with a small magnetic stirrer. Unless otherwise specified, the antagonist was added 1 minute before the inducing agent, and all the reactions were carried out at 37° C. The aggregation was calculated by following formula: […]
aggregation (% )=(light absorption before adding inducing agent-light absorption after adding inducing agent)/(light absorption before adding inducing agent-light absorption of Tyrode solution)×100% […]
| Platelets were precincubated with 1a, 1b, 1c, 1e, 2 or DMSO (0.5%, | control) at 37° C. for 3 min, then the inducer was added.

rat thoracic aorta = assay: Rat aortic contraction caused by norepinephrine and high potassium (KCl); type: cell-based, Wistar rat; conditions: 15 min; for K+ contraction (%), Tonic: K+ (80 mM); for norepinephrine contraction (%), Phrase (phasic) / norepinephrine contraction (%), Tonic: norepinephrine 3 μM
Protocol: A. Rat Aortic Contraction
Wistar rats of either sex weighing 250 g to 300 g were killed by a blow to the head. The thoracic aorta was isolated and excess fat and connective tissue were removed. Vessels were cut into rings of about 5 mm in length and mounted in organ baths containing 5 ml Krebs solution of the following composition (mM): NaCl (118.4), KCl (4.7), CaCl (1.9), MgSO4 (1.2), KH2 PO4 (1.2), NaHCO3 (25.0) and glucose (11.7). The tissue bath solution was maintained at 37° C. and gassed with 95% O2 :5% CO2 mixture. Two stainless steel hooks were inserted into the aortic lumen, one was fixed while the other was connected to a transducer. Aortae were equilibrated in the medium for 90 min with three changes of Krebs solution and maintained under an optimal tension of 1 g before specific experimental protocols were initiated.
Contraction was recorded isometrically via a force-displacement transducer connected to a Grass polygraph. Aortae were allowed to preincubate for 15 minutes with cinnamophilin before generating the cumulative concentration-response curve with each agonist for 15-30 min at 3 min intervals. Results are expressed as a percentage of the maximal control response for each agonist.
Rat aorta ring were preincubated with lignans or DMSO (0.1% control) at
37° C. for 15 min, then the inducer was added.

[1] = tested on: platelet aggregation, aortic contraction, tracheal contraction; assay: Bioassay / pharmacological evaluation (platelet aggregation, rat aortic contraction, guinea-pig tracheal contraction); conditions: rat aortic and guinea-pig tracheal contraction bioassays
Protocol: The methods of isolation might be performed using polar organic solvent such as methanol, ethanol and acetone. Solvent of the extract from root parts of Cinnamomum philippinense was evaporated and the residue was suspended in water, and extracted with chloroform or other non-polar organic solvents. Bioassay was performed by using this chloroform layer in platelet aggregation test, rat aortic contraction, and guinea-pig tracheal contraction. Purified bioactive components were obtained through silica gel column, then afforded cinnamophilin (1), two known lignan compounds as (+)-guaiacin (3), meso-dihydroguaiaretic acid (2) and an aromatic acid as vallinic acid.
Compounds II-V wherein R1 represents H, C1-8 alkyl, --OCOR, wherein R2 represents OH, COO--, wherein R represents H, C1-8 alkyl. Preferred substituted alkyl group is 8 carbon number, optical alkyl group is 6 carbon number. Structures of these compounds were elucidated on the basis of their IR, UV, ^1 H-NMR, ^13 C-NMR, Mass spectra as well as the elemental analytical data.

[2] = target: thromboxane A2 synthetase; conditions: Hoet et al., Blood 75, 646-53, 1990; read-out: IC50, thromboxane A2 synthetase inhibition; cited from earlier work
thromboxane receptor = conditions: Hoet et al., Blood 75, 646-53, 1990; read-out: IC50, thromboxane receptor inhibition; cited from earlier work
[3] = Antioxidation (absorbance at 500 nm, FeSCN method); conditions: 20 μM
Text: (Absorbance at 500 nm, using FeSCN method)

[4] = compared with BHA or BHT; background statement; cited from earlier work
[5] = inducer AA (100 μM), conc 20 μM, control 92.1 ± 1.3
[6] = inducer ADP (20 μM), conc 300 μM, control 81.6 ± 3.0
[7] = inducer PAF (2 ng/ml), conc 300 μM, control 91.7 ± 2.0
[8] = inducer U-46619 (1 μM), conc 200 μM, control 89.4 ± 1.2
[9] = inducer collagen (10 μg/ml), conc 50 μM, control 93.6 ± 1.0
[10] = inducer collagen (10 μg/ml), conc 100 μM, control 93.6 ± 1.0
[11] = inducer collagen (10 μg/ml), conc 200 μM, control 93.6 ± 1.0
[12] = inducer thrombin (0.1 U/ml), conc 300 μM, control 94.8 ± 2.0
[13] = inducer AA (100 μM), conc 50 μM, control 92.1 ± 1.3
[14] = inducer AA (100 μM), conc 100 μM, control 92.1 ± 1.3
[15] = inducer AA (100 μM), conc 200 μM, control 92.1 ± 1.3

Compound	Aggregation (%) (rabbit platelets; [5])	Aggregation (%) (rabbit platelets; [6])	Aggregation (%) (rabbit platelets; [7])	Aggregation (%) (rabbit platelets; [8])	Aggregation (%) (rabbit platelets; [9])	Aggregation (%) (rabbit platelets; [10])	Aggregation (%) (rabbit platelets; [11])	Aggregation (%) (rabbit platelets; [12])	K+ contraction (%), Tonic (rat thoracic aorta; conc 10 μM)	norepinephrine contraction (%), Phrase (phasic) (rat thoracic aorta; conc 10 μM)	norepinephrine contraction (%), Tonic (rat thoracic aorta; conc 10 μM)	Aggregation (%) (rabbit platelets; [13])	Aggregation (%) (rabbit platelets; [14])	Aggregation (%) (rabbit platelets; [15])	further results
COc1cc(C[C@@H](C)[C@@H](C)Cc2ccc(O)c(OC)c2)ccc1O [Compound 2, meso-dihydroguaiaretic acid, reference compound]	0.0 ± 0.0%	67.9 ± 8.4%	91.7 ± 2.0%	88.6 ± 3.2%	79.7 ± 4.7%	16.4 ± 4.4%	0.0 ± 0.0%	85.3 ± 6.6%	14.8 ± 2.1%	111.1 ± 6.2%	78.4 ± 8.8%				Aggregation (%) (rabbit platelets; inducer AA (100 μM), conc 5 μM, control 92.1 ± 1.3): 76.0 ± 7.8%; Aggregation (%) (rabbit platelets; inducer AA (100 μM), conc 10 μM, control 92.1 ± 1.3): 5.9 ± 5.3%; K+ contraction (%), Tonic (rat thoracic aorta; conc 1 μM): 74.0 ± 4.1%; K+ contraction (%), Tonic (rat thoracic aorta; conc 3 μM): 36.5 ± 3.2%; K+ contraction (%), Tonic (rat thoracic aorta; conc 5 μM): 25.7 ± 3.9%; bioactivity [1]: has not been observed
COc1ccc(CC(C)C(C)C(=O)c2ccc(OC)c(OC)c2)cc1OC (stereo not shown) [Compound 4, dimethylcinnamophilin]	87.8 ± 3.3%	30.7 ± 13.0%	0.0 ± 0.0%	86.5 ± 1.7%	86.2 ± 4.7%	80.3 ± 3.6%	7.5 ± 6.4%	89.7 ± 3.5%	10.5%	61.3 ± 2.1%	48.6 ± 3.3%	75.8 ± 10.6%	37.7 ± 1.6%	0.0 ± 0.0%	
COc1cc(CC(C)C(C)C(=O)c2ccc(OC(C)=O)c(OC)c2)ccc1OC(C)=O (stereo not shown) [Compound 5]	86.3 ± 4.6%	60.7 ± 12.0%	45.2 ± 9.2%	88.4 ± 4.3%	93.4 ± 1.2%	80.6 ± 4.7%	8.4 ± 7.3%	94.9 ± 1.0%	18.4 ± 4.7%	92.2 ± 13.4%	64.6 ± 9.1%	57.8 ± 2.8%	0.0 ± 0.0%		
COc1cc(CC(C)C(C)C(O)c2ccc(O)c(OC)c2)ccc1O (stereo not shown) [Compound 7, cinnamophilinol]	86.3 ± 1.0%	77.3 ± 4.0%	79.7 ± 6.6%	90.4 ± 1.4%	89.7 ± 3.4%	75.5 ± 2.4%	0.0 ± 0.0%	73.2 ± 6.8%	66.8 ± 2.2%	100%	113.3 ± 7.5%	75.5 ± 6.2%	10.4 ± 9.0%	0.0 ± 0.0%	K+ contraction (%), Tonic (rat thoracic aorta; conc 50 μM): 51.0 ± 4.4%; norepinephrine contraction (%), Phrase (phasic) (rat thoracic aorta; conc 50 μM): 95.5 ± 3.2%; norepinephrine contraction (%), Tonic (rat thoracic aorta; conc 50 μM): 85.3 ± 10.4%
O=C(O)CCCCO/N=C(/c1cccnc1)c1cccc(C(F)(F)F)c1 [ridogrel]															IC50 [2]: 5 nM; IC50 (thromboxane receptor): 2000 nM
Cc1c(C)c2c(c(C)c1O)CCC(C)(CCCC(C)CCCC(C)CCCC(C)C)O2 (stereo not drawn) [vitamin E, α-tocopherol, reference compound]															Absorbance at 500 nm ([3]; induce time 0, control 0.047): 0.026; Absorbance at 500 nm ([3]; induce time 4, control 0.084): 0.069; Absorbance at 500 nm ([3]; induce time 7, control 0.201): 0.083; Absorbance at 500 nm ([3]; induce time 10, control 0.343): 0.108; Absorbance at 500 nm ([3]; induce time 16): 0.176; Absorbance at 500 nm ([3]; induce time 19): 0.226; Absorbance at 500 nm ([3]; induce time 22): 0.297; Absorbance at 500 nm ([3]; induce time 25): 0.487; Absorbance at 500 nm ([3]; induce time 28): 1.024; antioxidative action on fatty oils [4]: lower than BHA (t-butylhydroxyanisole) or BHT (t-butylhydroxy toluene)
